≈ marks a conversion by molar mass, not a printed value. Like-named read-outs stand apart in the source and are kept apart here.
Legend:
EcFabI = EcFabI (Escherichia coli, UniProt P0AEK4); test: FabI enzymatic activity by NADH/NADPH oxidation (fluorescence), EcFabI; format: biochemical; settings: 9 nmol/L EcFabI; trans-dodecenoyl-CoA and NADH; pH 6.5
Experimental: (§4) In this test example, the enzymatic activity was evaluated by monitoring the oxidation of cofactor NADH/NADPH using a microplate reader.
(§5) The compound was dissolved in DMSO and added to a 384-well plate using ECHO665. Serial 3-fold or 4-fold dilutions were prepared to generate 10 dose points with two replicates per concentration, ensuring a final DMSO concentration 1% in each reaction well. Then, a FabI protein solution was added, and the protein was prepared in a buffer containing 100 mmol/L PBS, 0.05% Tween-20, and 150 mmol/L NaCl (pH 6.5), so that the final concentrations of SaFabI and EcFabI proteins were 15 nmol/L and 9 nmol/L, respectively. The prepared 5 µL of 15 nmol/L SaFabI and 9 nmol/L EcFabI were added to a 384-well assay plate, and centrifuged at 1000 rpm for 1 minute. Then, the plate was pre-incubated in a temperature-controlled shaker at 30 °C for 20 minutes. Moreover, substrates trans-octenoyl-CoA, NADPH, trans-dodecenoyl-CoA, and NADH were diluted in a buffer containing 100 mmol/L PBS, 0.05% Tween-20, and 15 0 mmol/L NaCl (pH 6.5) respectively, and their concentrations were adjusted to 300 µmol/L, 300 µmol/L, 600 µmol/L, and 150 µmol/L, respectively. For SaFabI, 5 µL of 300 µmol/L trans-octenoyl-CoA and 5 µL of 300 µmol/L NADPH were added to initiate the reaction. Immediately after initiation, the plate was placed into the microplate reader, and fluorescence signals (Ex 340 nm/Em 460 nm) were recorded every 0.5 minutes for at least 10 minutes. Similarly, 5 µL of 600 µmol/L trans-dodecenoyl-CoA and 5 µL of 150 µmol/L NADH were added to initiate reaction of EcFabI. Immediately after initiation, the plate was immediately placed into the microplate reader, and fluorescence signals (Ex 340 nm/Em 460 nm) were recorded every 0.5 minutes for at least 10 minutes. The reaction rate (fluorescence signal per minute) of each well was calculated from the fluorescence values. The inhibitory effect of the compound on the protein was then calculated based on the reaction rate, and the IC50 value for inhibition of enzyme activity by the compound was determined by fitting the data using GraphPad Prism 6 with log (inhibitor) vs. response variable slope model. The fitting equation is: Y=Bottom + (Top-Bottom)/(1+10^((LogIC50-X)*HillSlope)), wherein Y represents the known percentage of residual enzyme activity, and X represents the known Log concentration of the compound.

MRSA NRS 384 = test: MIC, agar plate two-fold dilution; format: cell-based, Staphylococcus aureus; settings: MHA, 37°C, 16-20 hours; for MIC: Staphylococcus aureus
Experimental: (§1) In this test example, the minimum inhibitory concentration (MIC) of the compound was determined.
(§2) The test drug concentration was set to be within a range of 0.008 µg/mL to 128 µg/mL in a two-fold serial dilution using an agar plate two-fold dilution method. The sample was dissolved in DMSO to prepare a 2 mL solution with a concentration of 1.92 mg/mL. The control group was prepared in sterile distilled water to obtain a concentration of 1.92 mg/mL. 1 mL of the prepared drug solution was added to a sterile culture dish, followed by addition of 14 mL of MHA culture medium at approximately 60°C. After thorough mixing, 1 mL of sterilized distilled water was added for two-fold dilution, resulting in a final drug concentration of 64 µg/mL, 32 µg/mL, 16 µg/mL, 8 µg/mL, 4 µg/mL, 2 µg/mL, 1 µg/mL, 0.5 µg/mL, 0.25 µg/mL, 0.125 µg/mL, 0.06 µg/mL, 0.03 µg/mL, 0.015 µg/mL, and 0.008 µg/mL (wherein the final concentrations of samples 2, 4, and 9 were diluted downward starting from 128 µg/mL), and set aside for later use. The prepared bacterial suspension was inoculated onto drug-containing MHA culture medium with a multi-point inoculator, with an inoculation volume of approximately 10^4 CFU per point. A sterile control group (1 mL DMSO + 14 mL MHA culture medium and 1 mL sterile distilled water + 14 mL MHA culture medium) was set up.

MSSA ATCC 29213 = test: MIC, agar plate two-fold dilution; format: cell-based, Staphylococcus aureus; settings: MHA, 37°C, 16-20 hours; for MIC: Staphylococcus aureus
Experimental: as §1, §2

VRSA VRS 1 = test: MIC, agar plate two-fold dilution; format: cell-based, Staphylococcus aureus; settings: MHA, 37°C, 16-20 hours; for MIC: Staphylococcus aureus
Experimental: as §1, §2

[1] = tested on: Acinetobacter baumannii ARLG 1852; test: MIC, agar plate two-fold dilution; format: cell-based
Experimental: as §1, §2

[2] = tested on: Escherichia coli. ATCC 25923; test: MIC, agar plate two-fold dilution; format: cell-based; settings: MHA, 37°C, 16-20 hours; for Minimum Inhibitory Concentration MIC: Escherichia coli. ATCC 25923; for MIC: Escherichia coli, ATCC25923, read-out: Minimum Inhibitory Concentration MIC, Escherichia coli. ATCC 25923
Experimental: as §1, §2

[3] = tested on: Klebsiella pneumoniae ATCC BAA 2472; test: MIC, agar plate two-fold dilution; format: cell-based
Experimental: as §1, §2

SaFabI = SaFabI (Staphylococcus aureus, UniProt Q6GI75); test: FabI enzymatic activity by NADH/NADPH oxidation (fluorescence), SaFabI; settings: SaFabI IC50, 15 nmol/L SaFabI; trans-octenoyl-CoA and NADPH; pH 6.5
Experimental: as §4, §5

[4] = Pharmacokinetic study in rats; format: in vivo, Sprague-Dawley (SD) rats; settings: oral gavage
Experimental: In this test experiment, a pharmacokinetic study of the compound in rats was conducted.
Twelve healthy adult female Sprague-Dawley (SD) rats (purchased from Beijing Vital River Laboratory Animal Technology Co., Ltd., China) with an average body weight of about 180-220 g were selected, and divided into four groups (n=3 per group). Two groups were administered via tail vein injection, while the other two groups were administered via oral gavage. Compound 1b was dissolved in a vehicle containing 5% DMSO, 30% PEG400, and 65% H2O, and Debio-1450 was dissolved in physiological saline, both of which were formed into a stable clear solution for later use. Animals were fasted for 12 hours before administration and resumed normal feeding 2 hours post administration. Then, blood samples were collected through the jugular vein at the following time points: 0.083 h, 0.25 h, 0.5 h, 1 h, 2 h, 4 h, 8 h, 24 h (tail vein injection) and 0.25 h, 0.5 h, 1 h, 2 h, 4 h, 8 h, 24 h (oral gavage administration), respectively, with a blood collection volume of about 200-400 µL. Whole blood collected at each time point was immediately transferred into an anticoagulant tube containing K2EDTA, then stored on ice in an insulated container. All samples were centrifuged within 15 minutes at 4600 r/min and 4°C for 5 minutes to separate plasma. The concentration of the compound in the plasma of each rat was determined using LC-MS/MS method, and the pharmacokinetic parameter was calculated from the drug concentration-time profile. Table 4 Oral Pharmacokinetic Parameters of Compound 1b/Debio-1450 In Rats

[5] = tested on: Acinetobacter baumannii ATCC17979; test: MIC, antibacterial spectrum; format: cell-based
Experimental: as §2
(§3) Referring to the minimum inhibitory concentration test method mentioned above, the antibacterial spectrum of compound 1b was tested. […] Table 3 Antibacterial Spectrum Testing of Compound 1b MIC (µg/mL)

[6] = tested on: Enterobacter cloacae ATCC13047; test: MIC, antibacterial spectrum; format: cell-based
Experimental: as §2, §3

[7] = tested on: Enterococcus faecalis ATCC51299; test: MIC, antibacterial spectrum; format: cell-based
Experimental: as §2, §3

[8] = tested on: Haemophilus influenzae ATCC29213; test: MIC, antibacterial spectrum; format: cell-based
Experimental: as §2, §3

[9] = tested on: Klebsiella pneumoniae ATCC2055; test: MIC, antibacterial spectrum; format: cell-based
Experimental: as §2, §3

[10] = tested on: Moraxella catarrhalis ATCC43617; test: MIC, antibacterial spectrum; format: cell-based
Experimental: as §2, §3

[11] = tested on: Neisseria gonorrhoeae ATCC49226; test: MIC, antibacterial spectrum; format: cell-based
Experimental: as §2, §3

[12] = tested on: Pseudomonas aeruginosa ATCC12055; test: MIC, antibacterial spectrum; format: cell-based
Experimental: as §2, §3

[13] = tested on: Salmonella Typhi CMCC12055; test: MIC, antibacterial spectrum; format: cell-based; settings: Salmonella enterica
Experimental: as §2, §3

[14] = tested on: Staphylococcus epidermidis ATCC35983; test: MIC, antibacterial spectrum; format: cell-based
Experimental: as §2, §3

[15] = tested on: Staphylococcus haemolyticus CICC23976; test: MIC, antibacterial spectrum; format: cell-based
Experimental: as §2, §3

[16] = tested on: Staphylococcus hominis ATCC27844; test: MIC, antibacterial spectrum; format: cell-based
Experimental: as §2, §3

Escherichia coli. = test: MIC, agar plate two-fold dilution; format: cell-based; settings: ATCC25923; Escherichia coli. ATCC 25923; MHA, 37°C, 16-20 hours; read-out: Minimum Inhibitory Concentration MIC
Experimental: as §1, §2

[17] = tested on: methicillin-resistant S. aureus (NRS384); test: Systemic infection model in mice, in vivo efficacy; parameters: species or system Balb/c mice; settings: single-dose oral administration, 0.3, 1.0, 3.0 mg/Kg; vs linezolid 3 mg/Kg and Debio-1450
Experimental: In this test experiment, the in vivo efficacy of the compound in mice was evaluated using a systemic infection model.
Ninety healthy adult male Balb/c mice (purchased from Beijing Vital River Laboratory Animal Technology Co., Ltd. , China) were selected, and divided into 10 groups, including one negative control group (9 mice, inoculated with bacteria and given vehicle), one positive control group (9 mice, vancomycin), one linezolid test group (9 mice), three test groups of high, medium, and low doses (3 ×9 mice) for compound 1a, three test groups of high, medium, and low doses (3 ×9 mice) for Debio-1450, and one test group for Debio-1452 (9 mice). All mice were acclimatized for 3-4 days before testing. The strain inoculated in this test example was methicillin-resistant S. aureus (NRS384), which was administered via tail vein injection at a dose of 1.0 × 10^8 CFU/mouse. The compound was administered 0.5 h post inoculation with the strain. The compound 1a and Debio-1452 were formulated in a vehicle containing 5% DMSO, 30% PEG400, and 65% H2O, while Debio-1450 was formulated in an isotonic glucose solution (freshly prepared) as the vehicle and was administered orally as a single dose. The specific dosing regimen is shown in Table 5: Table 5 Dosing Regimen for Systemic Infection Efficacy Model

[18] = Acinetobacter baumannii ARLG 1852, MHA, 37°C, 16-20 hours
[19] = Klebsiella pneumoniae ATCC BAA 2472, MHA, 37°C, 16-20 hours
[20] = MRSA|NRS384, read-out: Minimum Inhibitory Concentration MIC, MRSA NRS 384
[21] = ATCC29213|MSSA, read-out: Minimum Inhibitory Concentration MIC, MSSA ATCC 29213
[22] = VRSA, read-out: Minimum Inhibitory Concentration MIC, VRSA VRS 1
[23] = Acinetobacter baumannii, ARLG1852, read-out: Minimum Inhibitory Concentration MIC
[24] = Klebsiella pneumoniae, BAA2472, read-out: Minimum Inhibitory Concentration MIC
[25] = female, Sprague-Dawley, rat, 10 mg/Kg, plasma
[26] = female, Sprague-Dawley, rat, in vivo, 15 mg/Kg, plasma

Sequence of EcFabI (P0AEK4 whole entry): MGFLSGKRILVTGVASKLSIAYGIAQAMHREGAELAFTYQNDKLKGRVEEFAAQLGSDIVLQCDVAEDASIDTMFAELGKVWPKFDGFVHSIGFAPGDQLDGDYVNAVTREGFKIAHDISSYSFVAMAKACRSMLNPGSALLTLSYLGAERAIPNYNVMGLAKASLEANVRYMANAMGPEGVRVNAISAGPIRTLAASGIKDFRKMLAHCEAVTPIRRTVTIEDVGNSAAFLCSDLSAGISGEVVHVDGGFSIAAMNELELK
Sequence of SaFabI (Q6GI75 whole entry): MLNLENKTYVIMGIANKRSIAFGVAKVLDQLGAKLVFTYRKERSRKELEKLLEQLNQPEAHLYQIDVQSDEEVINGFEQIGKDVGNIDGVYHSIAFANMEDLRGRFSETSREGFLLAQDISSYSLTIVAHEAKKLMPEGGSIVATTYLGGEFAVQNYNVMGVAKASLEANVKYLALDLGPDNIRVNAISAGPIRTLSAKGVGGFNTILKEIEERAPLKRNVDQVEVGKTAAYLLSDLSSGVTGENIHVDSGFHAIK

Row | Compound | IC50 (EcFabI) [nM] | Minimum Inhibitory Concentration MIC (MRSA NRS 384; MRSA NRS 384) [µg/mL] | Minimum Inhibitory Concentration MIC (MSSA ATCC 29213; MSSA ATCC 29213) [µg/mL] | Minimum Inhibitory Concentration MIC (VRSA VRS 1; VRSA VRS 1) [µg/mL] | Minimum Inhibitory Concentration MIC [1, 18] [µg/mL] | Minimum Inhibitory Concentration MIC [2] [µg/mL] | Minimum Inhibitory Concentration MIC [3, 19] [µg/mL] | IC50 (SaFabI) [nM] | MIC (MRSA NRS 384; [20]) [µg/mL] | MIC (MSSA ATCC 29213; [21]) [µg/mL] | MIC [1, 23] [µg/mL] | MIC [2] [µg/mL] | MIC [3, 24] [µg/mL] | other results
1 | Cc1c(CN(C)C(=O)/C=C/c2cnc3c(c2)C2CC2(N)C(=O)N3)oc2c(C3CC3)cccc12 (single isomer, unassigned) [Compound 2b] | 13 | <0.008 | 0.016 | 0.06 | >32 | >16 | 32 | 12 | – | – | – | – | – | –
2 | Cc1c(CN(C)C(=O)/C=C/c2cnc3c(c2)C2CC2(N)C(=O)N3)oc2ccccc12 (stereo not drawn) [Compound 3a] | 7 | – | – | – | – | – | – | 10 | 0.03 (≈ 0.0745 µM) | 0.03 (≈ 0.0745 µM) | > 32 | 8 (≈ 19.9 µM) | > 32 | MIC (VRSA VRS 1; [22]): 0.5 µg/mL (≈ 1.24 µM)
3 | Cc1c(CN(C)C(=O)/C=C/c2cnc3c(c2)CCC(=O)N3COP(=O)(O)O)oc2ccccc12 [Debio-1450] | – | – | – | – | – | – | – | – | – | – | – | – | – | Cmax [4, 25]: 2210 ng/mL; Tmax [4, 25]: 0.67 h; half-life [4, 25]: 4.2 h; F ([4]; 10 mg/Kg vs tail vein injection): 97%
4 | Cc1c(CN(C)C(=O)/C=C/c2cnc3c(c2)C2CC2(N)C(=O)N3)oc2c(C)cccc12 (stereo not drawn) [Compound 1b] | 5 | <0.008 | <0.008 | 0.12 | >32 | 4 | 16 | 12 | – | – | – | – | – | MIC [5]: 32 µg/mL (≈ 76.8 µM); MIC [6]: 8 µg/mL (≈ 19.2 µM); MIC [7]: > 64 µg/mL; antibacterial activity (in words) [8]: good antibacterial activity; MIC ([8]; ATCC29213): 0.25 µg/mL (≈ 0.6 µM); MIC [9]: 8 µg/mL (≈ 19.2 µM); antibacterial activity (in words) ([10]; Moraxella catarrhalis): excellent antibacterial activity; MIC ([10]; Moraxella catarrhalis ATCC43617): < 0.06 µg/mL; MIC [11]: 8 µg/mL (≈ 19.2 µM); MIC [12]: > 64 µg/mL; MIC [13]: 4 µg/mL (≈ 9.6 µM); antibacterial activity (in words) ([14]; Staphylococcus epidermidis): excellent antibacterial activity; MIC ([14]; Staphylococcus epidermidis ATCC35983): < 0.06 µg/mL; MIC [15]: < 0.06 µg/mL; antibacterial activity (in words) ([16]; Staphylococcus hominis): excellent antibacterial activity; MIC ([16]; Staphylococcus hominis ATCC27844): < 0.06 µg/mL; Tmax [4, 26]: 1.5 h; half-life [4, 26]: 2.57 h; F ([4]; 15 mg/Kg vs tail vein injection): 110%
5 | Cc1c(CN(C)C(=O)/C=C/c2cnc3c(c2)C2CC2(N)C(=O)N3)oc2ccccc12 (stereo not drawn) [Compound 3b] | – | 0.016 | 0.016 | 0.25 | >32 | 8 | >32 | – | – | – | – | – | – | –
6 | Cc1c(CN(C)C(=O)/C=C/c2cnc3c(c2)CCC(=O)N3)oc2ccccc12 [Debio-1452, reference compound] | 3 | – | – | – | – | – | – | 2 | – | – | – | – | – | MIC (MRSA NRS 384; MRSA NRS 384, read-out: Minimum Inhibitory Concentration MIC): < 0.008 µg/mL; MIC (MSSA ATCC 29213; MSSA ATCC 29213, read-out: Minimum Inhibitory Concentration MIC): < 0.008 µg/mL; MIC (VRSA VRS 1; VRSA VRS 1, read-out: Minimum Inhibitory Concentration MIC): 0.12 µg/mL (≈ 0.32 µM); MIC ([1]; ARLG1852, Acinetobacter baumannii ARLG 1852, MHA, 37°C, 16-20 hours, read-out: Minimum Inhibitory Concentration MIC): > 8 µg/mL; MIC (Escherichia coli.): 4 µg/mL (≈ 10.7 µM); MIC ([3]; BAA2472, Klebsiella pneumoniae ATCC BAA 2472, MHA, 37°C, 16-20 hours, read-out: Minimum Inhibitory Concentration MIC): > 8 µg/mL
7 | Cc1c(CN(C)C(=O)/C=C/c2cnc3c(c2)C2CC2(N)C(=O)N3)oc2c(C3CC3)cccc12 (single isomer, unassigned) [Compound 2a] | 6 | – | – | – | – | – | – | 10 | < 0.008 | < 0.008 | > 32 | 8 (≈ 18.1 µM) | 32 (≈ 72.3 µM) | MIC (VRSA VRS 1; [22]): 0.06 µg/mL (≈ 0.136 µM)
8 | Cc1c(CN(C)C(=O)/C=C/c2cnc3c(c2)C2CC2(N)C(=O)N3)oc2c(C)cccc12 (stereo not drawn) [Compound 1a] | 4 | – | – | 0.25 | – | – | – | 5 | < 0.008 | < 0.008 | > 32 | 4 (≈ 9.6 µM) | 16 (≈ 38.4 µM) | efficacy compared with the reference compounds [17]: markedly superior efficacy to linezolid and better efficacy than Debio-1450
